# Reference: patent US8354447B2, “mGLU receptors antagonists for treating disorders associated with mGLU receptors including addiction and depression” (The Scripps Research Institute, priority 2002, dated 2013)
# Key:
# rats = details: 2.5-10 mg/kg i.p.; cited from earlier work
# Male DBA/2J mice = test: Intravenous nicotine self-administration in drug-naive mice; assay type: in vivo, mouse
# Procedure: Acute self-administration of nicotine was carried out using a previously described method (Semenova et al. 1995, 1999; Kuzmin et al. 1996a, 1997). The tails of the mice were fixed to the surface of the apparatus during the testing sessions to allow drug delivery; the fixing of the tail allowed the mice to move all of their four paws, head and entire body. […] The only cue associated with the delivery of the drug or vehicle infusion was the noise of the pump. Mice were tested either once or twice, with approximately one month between each test. The second test only occurred in a subset of the original set of mice (2-7 pairs of mice from each of the original groups). This was done to increase the number of subjects/condition, and involved randomly assigning and testing these mice under a different set of conditions than in the original test (i.e., different nicotine and/or MPEP dose).
# Saline or one of four nicotine doses (0.016, 0.048, 0.16, 0.48 μg/inf) were made available to different groups of animals. Each group consisted of 9-17 pairs of animals, including 2-7 mice per group that had previously undergone one testing session at least one month previously (see above). Pre-treatment with MPEP (0, 5, 10, 20 mg/kg intraperitoneally) occurred 15 minutes prior to the initiation of the test session.
# Data analyses were based on the comparison of both active and passive mouse nose-pokes in each pair, using the formula: R=log(AT/PT)−log(ABL/PBL), where (AT/PT) is the ratio of the total number of active versus passive mouse nose-pokes during the 30-min test, and (ABL/PBL) is the ratio of the total number of active versus passive mouse nose-pokes during the 10-min pre-test. […] Some data-points (9/237 pairs of mice) were excluded from the final analyses based on whether or not they lay within 2 standard deviations of the group mean for that specific condition. Nicotine self-administration data, obtained after saline pre-treatment, were analyzed using a one-way ANOVA with nicotine (4 levels) defined as the between-subjects factor. R-criterion data were analyzed using two-way ANOVAs with MPEP dose (4 levels) and nicotine dose (4 levels) defined as the between-subjects factors. Pre-planned R-criterion data analyses were performed using one-way ANOVAs for each available dose of self-administered nicotine and saline, with MPEP dose (4 levels) defined as the between-subject factor. Appropriate individual comparisons were performed using the Student-Newman-Keuls post hoc test. […] Body weights and pre-test nose-poke activity levels were analyzed with three-way ANOVAs (nicotine dose, MPEP dose and mouse, i.e. active/passive, defined as between-subjects factors).
# Wistar rats = test: Cocaine-induced lowering of ICSS thresholds; assay type: in vivo, rat
# mice = details: Chiamulera et al. 2001; cited from earlier work
# [1] = MPEP 5 mg/kg, Nicotine 0 μg/inf
# [2] = MPEP 5 mg/kg, Nicotine 0.016 μg/inf
# [3] = MPEP 5 mg/kg, Nicotine 0.048 μg/inf
# [4] = MPEP 5 mg/kg, Nicotine 0.16 μg/inf
# [5] = MPEP 5 mg/kg, Nicotine 0.48 μg/inf
# [6] = MPEP 10 mg/kg, Nicotine 0 μg/inf
# [7] = MPEP 10 mg/kg, Nicotine 0.016 μg/inf
# [8] = MPEP 10 mg/kg, Nicotine 0.048 μg/inf
# [9] = MPEP 10 mg/kg, Nicotine 0.16 μg/inf
# [10] = MPEP 10 mg/kg, Nicotine 0.48 μg/inf
# [11] = MPEP 20 mg/kg, Nicotine 0 μg/inf
# [12] = MPEP 20 mg/kg, Nicotine 0.016 μg/inf
# [13] = MPEP 20 mg/kg, Nicotine 0.048 μg/inf
# [14] = MPEP 20 mg/kg, Nicotine 0.16 μg/inf
# [15] = MPEP 20 mg/kg, Nicotine 0.48 μg/inf
# [16] = MPEP 3 mg/kg, 10, 40, 70 and 100 min
smiles,measurement,setting,value
"Cc1cccc(C#Cc2ccccc2)n1 [MPEP, 2-methyl-6-(phenylethynyl)-pyridine]",exploratory locomotor activity,rats,had no effect on exploratory locomotor activity in rats
same,total self-injected nicotine dose,Male DBA/2J mice; 0.048 μg/inf nicotine,no significant effect of MPEP on total self-injected nicotine dose
same,R-criterion,"Male DBA/2J mice; 20 mg/kg MPEP, 0.048 μg/inf nicotine",a trend for 20 mg/kg MPEP to decrease the R-criterion below zero
same,"nose-pokes, active pre-test",Male DBA/2J mice; [1],8.19 ± 1.03 responses per minute
same,"nose-pokes, active test",Male DBA/2J mice; [1],4.99 ± 1.17 responses per minute
same,"nose-pokes, passive pre-test",Male DBA/2J mice; [1],8.38 ± 0.96 responses per minute
same,"nose-pokes, passive test",Male DBA/2J mice; [1],6.41 ± 1.38 responses per minute
same,"nose-pokes, active pre-test",Male DBA/2J mice; [2],7.86 ± 0.87 responses per minute
same,"nose-pokes, active test",Male DBA/2J mice; [2],2.62 ± 0.49 responses per minute
same,"nose-pokes, passive pre-test",Male DBA/2J mice; [2],8.01 ± 0.91 responses per minute
same,"nose-pokes, passive test",Male DBA/2J mice; [2],3.46 ± 0.74 responses per minute
same,"nose-pokes, active pre-test",Male DBA/2J mice; [3],9.13 ± 1.37 responses per minute
same,"nose-pokes, active test",Male DBA/2J mice; [3],3.43 ± 0.67 responses per minute
same,"nose-pokes, passive pre-test",Male DBA/2J mice; [3],8.93 ± 1.36 responses per minute
same,"nose-pokes, passive test",Male DBA/2J mice; [3],4.45 ± 1.06 responses per minute
same,"nose-pokes, active pre-test",Male DBA/2J mice; [4],8.32 ± 0.94 responses per minute
same,"nose-pokes, active test",Male DBA/2J mice; [4],4.67 ± 0.95 responses per minute
same,"nose-pokes, passive pre-test",Male DBA/2J mice; [4],8.48 ± 3.31 responses per minute
same,"nose-pokes, passive test",Male DBA/2J mice; [4],4.32 ± 2.37 responses per minute
same,"nose-pokes, active pre-test",Male DBA/2J mice; [5],8.12 ± 1.17 responses per minute
same,"nose-pokes, active test",Male DBA/2J mice; [5],3.04 ± 0.73 responses per minute
same,"nose-pokes, passive pre-test",Male DBA/2J mice; [5],8.58 ± 1.38 responses per minute
same,"nose-pokes, passive test",Male DBA/2J mice; [5],3.25 ± 0.88 responses per minute
same,"nose-pokes, active pre-test",Male DBA/2J mice; [6],7.95 ± 0.99 responses per minute
same,"nose-pokes, active test",Male DBA/2J mice; [6],4.92 ± 1.1 responses per minute
same,"nose-pokes, passive pre-test",Male DBA/2J mice; [6],8.00 ± 1.06 responses per minute
same,"nose-pokes, passive test",Male DBA/2J mice; [6],5.86 ± 1.56 responses per minute
same,"nose-pokes, active pre-test",Male DBA/2J mice; [7],7.79 ± 0.83 responses per minute
same,"nose-pokes, active test",Male DBA/2J mice; [7],6.48 ± 1.05 responses per minute
same,"nose-pokes, passive pre-test",Male DBA/2J mice; [7],8.22 ± 0.87 responses per minute
same,"nose-pokes, passive test",Male DBA/2J mice; [7],4.26 ± 0.94 responses per minute
same,"nose-pokes, active pre-test",Male DBA/2J mice; [8],7.43 ± 0.98 responses per minute
same,"nose-pokes, active test",Male DBA/2J mice; [8],3.92 ± 1.18 responses per minute
same,"nose-pokes, passive pre-test",Male DBA/2J mice; [8],8.06 ± 1.39 responses per minute
same,"nose-pokes, passive test",Male DBA/2J mice; [8],5.83 ± 1.72 responses per minute
same,"nose-pokes, active pre-test",Male DBA/2J mice; [9],7.12 ± 0.66 responses per minute
same,"nose-pokes, active test",Male DBA/2J mice; [9],4.19 ± 0.81 responses per minute
same,"nose-pokes, passive pre-test",Male DBA/2J mice; [9],7.20 ± 0.69 responses per minute
same,"nose-pokes, passive test",Male DBA/2J mice; [9],4.62 ± 0.82 responses per minute
same,"nose-pokes, active pre-test",Male DBA/2J mice; [10],7.49 ± 0.86 responses per minute
same,"nose-pokes, active test",Male DBA/2J mice; [10],3.58 ± 0.73 responses per minute
same,"nose-pokes, passive pre-test",Male DBA/2J mice; [10],7.48 ± 0.88 responses per minute
same,"nose-pokes, passive test",Male DBA/2J mice; [10],3.81 ± 0.47 responses per minute
same,"nose-pokes, active pre-test",Male DBA/2J mice; [11],6.98 ± 1.18 responses per minute
same,"nose-pokes, active test",Male DBA/2J mice; [11],5.96 ± 1.69 responses per minute
same,"nose-pokes, passive pre-test",Male DBA/2J mice; [11],8.50 ± 1.43 responses per minute
same,"nose-pokes, passive test",Male DBA/2J mice; [11],6.33 ± 1.66 responses per minute
same,"nose-pokes, active pre-test",Male DBA/2J mice; [12],7.10 ± 0.87 responses per minute
same,"nose-pokes, active test",Male DBA/2J mice; [12],5.48 ± 1.09 responses per minute
same,"nose-pokes, passive pre-test",Male DBA/2J mice; [12],7.35 ± 0.85 responses per minute
same,"nose-pokes, passive test",Male DBA/2J mice; [12],8.77 ± 1.85 responses per minute
same,"nose-pokes, active pre-test",Male DBA/2J mice; [13],8.36 ± 1.07 responses per minute
same,"nose-pokes, active test",Male DBA/2J mice; [13],3.56 ± 1.04 responses per minute
same,"nose-pokes, passive pre-test",Male DBA/2J mice; [13],8.31 ± 1.28 responses per minute
same,"nose-pokes, passive test",Male DBA/2J mice; [13],5.29 ± 1.11 responses per minute
same,"nose-pokes, active pre-test",Male DBA/2J mice; [14],7.50 ± 1.25 responses per minute
same,"nose-pokes, active test",Male DBA/2J mice; [14],5.06 ± 1.52 responses per minute
same,"nose-pokes, passive pre-test",Male DBA/2J mice; [14],7.56 ± 1.32 responses per minute
same,"nose-pokes, passive test",Male DBA/2J mice; [14],7.97 ± 1.76 responses per minute
same,"nose-pokes, active pre-test",Male DBA/2J mice; [15],7.31 ± 0.98 responses per minute
same,"nose-pokes, active test",Male DBA/2J mice; [15],4.67 ± 1.22 responses per minute
same,"nose-pokes, passive pre-test",Male DBA/2J mice; [15],7.08 ± 0.94 responses per minute
same,"nose-pokes, passive test",Male DBA/2J mice; [15],4.35 ± 0.98 responses per minute
same,nicotine self-administration (R-criterion),"Male DBA/2J mice; MPEP 5, 10, 20 mg/kg, 0.048 μg/inf nicotine",significantly reduced nicotine self-administration at all doses tested
same,nose-poke responding,"Male DBA/2J mice; active mice, 0.048 μg/inf nicotine",significantly decreased nose-poke responding in the active mice
same,duration of cocaine-induced lowering of ICSS thresholds,Wistar rats; MPEP 3 mg/kg,did not attenuate the duration of time that cocaine lowered ICSS thresholds
same,ICSS Thresholds,Wistar rats; [16],had no effect on ICSS thresholds at any time-point
same,ICSS response Latencies,Wistar rats; [16],had no effect on response latencies at any time-point
same,ICSS Thresholds,"Wistar rats; MPEP 9 mg/kg before cocaine 10 mg/kg, compared to cocaine-treated rats that received vehicle",significantly elevated in cocaine-treated rats that previously received MPEP (9 mg/kg) compared to cocaine-treated rats that received vehicle injection
same,ICSS Thresholds,"Wistar rats; MPEP 9 mg/kg before cocaine 10 mg/kg, compared to saline-treated rats pretreated with vehicle",still significantly lowered compared to saline-treated rats pretreated with vehicle
same,magnitude of cocaine-induced lowering of ICSS thresholds,Wistar rats; MPEP 1-9 mg/kg,did not attenuate the magnitude of the lowering in ICSS thresholds observed after systemic cocaine administration
same,ICSS Thresholds,"Wistar rats; MPEP alone, 6 and 9 mg/kg significant",significantly elevated ICSS thresholds
same,ICSS response Latencies,"Wistar rats; MPEP, only the highest dose (9 mg/kg)",significantly increased response latencies
same,cocaine self-administration,mice,dose-dependent reduction in cocaine self-administration without affecting responding for food
